# According to patent US20220220041A1, “USE OF UREA AS AN ANTIMICROBIAL ADDITIVE IN AN AQUEOUS SUSPENSION” (Omya International AG, priority 2019, published 2022):
# Legend:
# Pseudomonas putida = assay: Example 2 preservation efficacy: H60 slurry with 61 wt.-% urea solution, P. putida inoculum, TVC; type: cell-based; conditions: 30° C.
# Procedure: (§1) All quoted bacterial counts (Total viable counts (TVC) values), unless otherwise indicated, are given in cfu/ml and determined after at least 2 days following plate-out and incubation at 30° C. and in accordance with the counting method described in “Bestimmung von aerobe mesophilen Keimen”, Schweizerisches Lebensmittelbuch, chapter 56, section 7.01, edition of 1985, revised version of 1988.
# (§2) Unless otherwise stated, per tryptic soy agar plate (TSA, prepared using BD 236950) 0.1 ml of a solution or suspension is plated. Counts from 10000 cfu/ml to 99999 cfu/ml are reported as >1E4 cfu/ml. Counts from 100000 cfu/ml to 999999 cfu/ml are reported as >1E5 cfu/ml. Counts above 1000000 cfu/ml are reported as >1E6 cfu/ml.
# For the preparation of inoculum with a single bacterial species (for example Escherichia coli (DSMZ 46295) or Pseudomonas putida), bacteria are spread onto Tryptic soy broth agar (BD, 236950) by dilution streaking followed by incubation at 30° C. for at least 24 h until colonies appear. Overnight cultures are generated by inoculation of 3 ml Tryptic soy broth (Fluka 22092) with a single colony followed incubation with agitation at […] at 30° C. for 24 h.
# (§3) 50 g sterile slurry H60 with a solid content of 76.5 wt.-%, based on the total weight of the H60 slurry is supplemented with different amounts of 61 wt.-% urea solution or water. The samples are then inoculated with 1 ml non-sterile calcium carbonate slurry (H60), 1 ml non-sterile calcium carbonate slurry (H90), 0.02 ml overnight culture of Escherichia coli (DSMZ 46295) and 0.02 ml overnight culture of Pseudomonas putida. The control samples are not inoculated. Samples are incubated at 30° C. and the TVC and pH are determined at various time points (0 day, 1 day, 4, days, 8 days, 9 days and/or 13 days).
# rats = conditions: cited from earlier work
# [1] = test system: non-sterile calcium carbonate slurry (H90), environmental bacteria; assay: Example 2 preservation efficacy: H60 slurry with 61 wt.-% urea solution, non-sterile H90 inoculum, TVC; type: cell-based; conditions: 30° C.
# Procedure: as §1, §2
# Non-sterile slurries (H60 or H90) contain contamination with environmental bacteria at a TVC>100000 cfu/ml. The contamination originates spontaneously and a bacterial burden of at least>100000 cfu/ml is confirmed prior use as inoculum by TVC. The following bacterial species are known to occur, as identified by 16S RNA sequencing or MALDI-TOF-MS analysis: Rhizobium radiobacter, Brevundimonas intermedia, Brevundimonas diminiuta, Sphingomonas sp., Pseudomonas stutzeri, Pseudomonas sp., Comomonas aquatic.
# as §3
# [2] = Example 5: addition of dry urea to H60 slurry, viscosity and stability of the product; type: physicochemical; conditions: 2.68 wt.-% urea and 73 wt.-% calcium carbonate
# Procedure: The Brookfield viscosity is measured by a Brookfield DV-III Ultra viscometer at 20° C.±3° C. at 100 rpm using an LV-3 spindle and is specified in mPa·s. Once the spindle has been inserted into the sample, the measurement is started with a constant rotating speed of 100 rpm.
# 1 kg calcium carbonate slurry (H60) with a solid content of 75 wt.-%, based on the total weight of the H60 slurry is stirred at approximately 500 rotations per minute (rpm) and 27.5 g dry urea is added slowly during agitation, leading to 2.68 wt.-% urea and 73 wt.-% calcium carbonate, based on the total weight of the obtained slurry. The blend is further mixed for 30 minutes at slow speed (<500 rpm).
# [3] = Table 2, urea 2.75%, calcium carbonate 73.1%, water 24.15% w/w
# [4] = Table 2, urea 7.6%, calcium carbonate 67.1%, water 25.3% w/w
# [5] = Table 3, urea 0.65%, calcium carbonate 75.7%, water 23.65% w/w
# [6] = Table 3, urea 2.75%, calcium carbonate 73.1%, water 24.15% w/w
compound,measurement,setting,value
NC(N)=O [urea],TVC cfu/ml Day 1,Pseudomonas putida; [3],<100 cfu/ml
same,TVC cfu/ml Day 4,Pseudomonas putida; [3],<100 cfu/ml
same,TVC cfu/ml Day 8,Pseudomonas putida; [3],100 cfu/ml
same,TVC cfu/ml Day 13,Pseudomonas putida; [3],<100 cfu/ml
same,TVC cfu/ml Day 1,Pseudomonas putida; [4],<100 cfu/ml
same,TVC cfu/ml Day 4,Pseudomonas putida; [4],<100 cfu/ml
same,TVC cfu/ml Day 8,Pseudomonas putida; [4],<100 cfu/ml
same,TVC cfu/ml Day 13,Pseudomonas putida; [4],<100 cfu/ml
same,TVC cfu/ml Day 1,Pseudomonas putida; [5],>1E5 cfu/ml
same,TVC cfu/ml Day 4,Pseudomonas putida; [5],>1E5 cfu/ml
same,TVC cfu/ml Day 1,Pseudomonas putida; [6],<100 cfu/ml
same,TVC cfu/ml Day 4,Pseudomonas putida; [6],<100 cfu/ml
same,TVC cfu/ml Day 9,Pseudomonas putida; [6],<100 cfu/ml
same,LD50,rats,15000 mg/kg
same,TVC cfu/ml Day 1,[1]; [3],<100 cfu/ml
same,TVC cfu/ml Day 4,[1]; [3],<100 cfu/ml
same,TVC cfu/ml Day 8,[1]; [3],<100 cfu/ml
same,TVC cfu/ml Day 13,[1]; [3],<100 cfu/ml
same,TVC cfu/ml Day 1,[1]; [4],<100 cfu/ml
same,TVC cfu/ml Day 4,[1]; [4],<100 cfu/ml
same,TVC cfu/ml Day 8,[1]; [4],<100 cfu/ml
same,TVC cfu/ml Day 13,[1]; [4],<100 cfu/ml
same,TVC cfu/ml Day 1,[1]; [5],>1E5 cfu/ml
same,TVC cfu/ml Day 4,[1]; [5],>1E5 cfu/ml
same,TVC cfu/ml Day 1,[1]; [6],<100 cfu/ml
same,TVC cfu/ml Day 4,[1]; [6],<100 cfu/ml
same,TVC cfu/ml Day 9,[1]; [6],<100 cfu/ml
same,formation of clumps after addition of dry urea,[2],No clumps were formed
same,viscosity after addition of dry urea,[2],does not increase
same,stability of the product,[2]; 7 days at room temperature and 40° C.,remains stable
